Legend:
[1] = molecular target: T1, human PPARalpha (Homo sapiens, UniProt Q07869); experiment: Cellular PPARalpha assay (stably transfected HEK luciferase reporter cell line); assay type: cell-based; settings: GR-GAL4-humanPPARalpha-LBD, 24 h
T1 construct: human PPARalpha receptor (amino acids S167-Y468); expressed in transfected cells; host or cells: HEK cells (stably transfected, pcDNA3, CMV promoter)
T1 sequence (Q07869 167-468): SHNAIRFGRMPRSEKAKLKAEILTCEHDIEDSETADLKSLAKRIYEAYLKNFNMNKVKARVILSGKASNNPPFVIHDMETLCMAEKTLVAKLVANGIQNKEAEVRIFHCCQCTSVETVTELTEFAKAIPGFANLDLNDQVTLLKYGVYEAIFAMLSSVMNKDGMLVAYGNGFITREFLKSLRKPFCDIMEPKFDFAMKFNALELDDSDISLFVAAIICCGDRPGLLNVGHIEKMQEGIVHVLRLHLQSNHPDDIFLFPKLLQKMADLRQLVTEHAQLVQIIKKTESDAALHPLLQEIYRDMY
Protocol: 1) Determination of EC50 Values of PPAR Agonists in the Cellular PPARalpha Assay
The activity of the novel compounds of the present invention was tested as follows The potency of substances which bind to human PPARalpha and activate it in an agonistic manner is analyzed using a stably transfected HEK cell line (HEK=human embryo kidney) which is referred to here as PPARalpha reporter cell line. It contained two genetic elements, a luciferase reporter element (pdeltaM-GAL4-Luc-Zeo) and a PPARalpha fusion protein (GR-GAL4-humanPPARalpha-LBD) which mediates expression of the luciferase reporter element depending on a PPARalpha ligand. The stably and constitutively expressed fusion protein GR-GAL4-humanPPARalpha-LBD binds in the cell nucleus of the PPARalpha reporter cell line via the GAL4 protein portion to the GAL4 DNA binding motifs 5′-upstream of the luciferase reporter element which was stably integrated in the genome of the cell line. There is only little expression of the luciferase reporter gene without addition of a PPARalpha ligand if fatty acid-depleted fetal calf serum (cs-FCS) is used in the assay. PPARalpha ligands bind and activate the PPARalpha fusion protein and thereby bring about expression of the luciferase reporter gene. The luciferase which is formed can be detected by means of chemiluminescence via an appropriate substrate.
The PPARalpha reporter cell line was prepared in two steps. Firstly, the luciferase reporter element was constructed and stably transfected into HEK cells. For this purpose, five binding sites of the yeast transcription factor GAL4 (in each case 5′-CGGAGTACTGTCCTCCGAG-3′) were cloned in 5′-upstream of a 68 bp-long minimal MMTV promoter (Genbank Accession #V01175). The minimal MMTV promoter section contains a CCAAT box and a TATA element in order to enable efficient transcription by RNA polymerase II. The cloning and sequencing of the GAL4-MMTV construct took place in analogy to the description of Sambrook J. et. al. (Molecular Cloning, Cold Spring Harbor Laboratory Press, 1989). Which is hereby incorporated by reference herein.
The complete Photinus pyralis luciferase gene (Genbank Accession #M15077) was cloned in 3′-downstream of the GAL4-MMTV element. After sequencing, the luciferase reporter element consisting of five GAL4 binding sites, MMTV promoter and luciferase gene was subcloned into a plasmid which confers zeozin resistance in order to obtain the plasmid pdeltaM-GAL4-Luc-Zeo. This vector was transfected into HEK cells in accordance with the statements in Ausubel, F.M. et al. (Current Protocols in Molecular Biology, Vol. 1-3, John Wiley & Sons, Inc., 1995).
In a second step, the PPARalpha fusion protein (GR-GAL4-humanPPARalpha-LBD) was introduced into the stable cell clone described. For this purpose, initially the cDNA coding for the N-terminal 76 amino acids of the glucocorticoid receptor (Genbank Accession # P04150) was linked to the cDNA section coding for amino acids 1-147 of the yeast transcription factor GAL4 (Genbank Accession #P04386). The cDNA of the ligand-binding domain of the human PPARalpha receptor (amino acids S167-Y468; Genbank Accession #S74349) was cloned in at the 3′ end of this GR-GAL4 construct. The fusion construct prepared in this way (GR-GAL4-humanPPARalpha-LBD) was subcloned into the plasmid pcDNA3 (from Invitrogen) in order to enable constitutive expression therein by the cytomegalovirus promoter. This plasmid was linearized with a restriction endonuclease and stably transfected into the previously described cell clone containing the luciferase reporter element. The finished PPARalpha reporter cell line which contains a luciferase reporter element and constitutively expresses the PPARalpha fusion protein (GR-GAL4-humanPPARalpha-LBD) was isolated by selection with zeozin (0.5 mg/ml) and G418 (0.5 mg/ml).
The activity of PPARalpha agonists was determined in a 3-day assay which is described below: […]

[2] = molecular target: T2, human PPARgamma (Homo sapiens, UniProt P37231); experiment: Cellular PPARgamma assay (transiently transfected HEK cells, luciferase reporter); assay type: cell-based; settings: GAL4-humanPPARgammaLBD, firefly/Renilla luciferase ratio, 48 h
T2 construct: human PPARgamma receptor (amino acids 1152-Y475); expressed in transfected cells; host or cells: HEK cells (transiently transfected, pcDNA3-GAL4-humanPPARgammaLBD)
T2 sequence (P37231 182-477 isoform P37231-2 limits assumed): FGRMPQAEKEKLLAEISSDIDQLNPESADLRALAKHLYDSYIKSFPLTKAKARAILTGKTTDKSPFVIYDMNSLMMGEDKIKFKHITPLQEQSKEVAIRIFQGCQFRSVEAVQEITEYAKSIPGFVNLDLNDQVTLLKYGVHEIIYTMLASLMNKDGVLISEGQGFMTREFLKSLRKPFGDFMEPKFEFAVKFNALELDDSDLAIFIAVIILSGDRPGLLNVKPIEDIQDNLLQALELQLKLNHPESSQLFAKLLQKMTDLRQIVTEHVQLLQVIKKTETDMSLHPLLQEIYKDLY
Source text: 4) Determination of EC50 Values of PPAR Agonists in the Cellular PPARgamma Assay
A transient transfection system is employed to determine the cellular PPARgamma activity of PPAR agonists. It is based on the use of a luciferase reporter plasmid (pGL3basic-5xGAL4-TK) and of a PPARgamma expression plasmid (pcDNA3-GAL4-humanPPARgammaLBD). Both plasmids are transiently transfected into human embryonic kidney cells (HEK cells). There is then expression in these cells of the fusion protein GAL4-humanPPARgammaLBD which binds to the GAL4 binding sites of the reporter plasmid. In the presence of a PPARgamma-active ligand, the activated fusion protein GAL4-humanPPARgammaLBD induces expression of the luciferase reporter gene, which can be detected in the form of a chemiluminescence signal after addition of a luciferase substrate. As a difference from the stably transfected PPARalpha reporter cell line, in the cellular PPARgamma assay the two components (luciferase reporter plasmid and PPARgamma expression plasmid) are transiently transfected into HEK cells because stable and permanent expression of the PPARgamma fusion protein is cytotoxic.
The luciferase reporter plasmid pGL3basic-5xGAL4-TK is based on the vector pGL3basic from Promega. The reporter plasmid is prepared by cloning five binding sites of the yeast transcription factor GAL4 (each binding site with the sequence 5′-CTCGGAGGACAGTACTCCG-3′), together with a 160 bp-long thymidine kinase promoter section (Genbank Accession #AF027128) 5′-upstream into pGL3basic. 3′-downstream of the thymidine kinase promoter is the complete luciferase gene from Photinus pyralis (Genbank Accession # Ml 5077), which is already a constituent of the plasmid pGL3basic used. The cloning and sequencing of the reporter plasmid pGL3basic-5xGAL4-TK took place in analogy to the description in Sambrook J. et. al. (Molecular cloning, Cold Spring Harbor Laboratory Press, 1989).
The PPARgamma expression plasmid pcDNA3-GAL4-humanPPARgammaLBD was prepared by first cloning the cDNA coding for amino acids 1-147 of the yeast transcription factor GAL4 (Genbank Accession #P04386) into the plasmid pcDNA3 (from Invitrogen) 3′-downstream of the cytomegalovirus promoter. Subsequently, the cDNA of the ligand-binding domain (LBD) of the human PPARgamma receptor (amino acids […]; Accession #g1480099) 3′-downstream of the GAL4 DNA binding domain was cloned. Cloning and sequencing of the PPARgamma expression plasmid pcDNA3-GAL4-humanPPARgammaLBD again took place in analogy to the description in Sambrook J. et. al. (Molecular cloning, Cold Spring Harbor Laboratory Press, 1989). Besides the luciferase reporter plasmid pGL3basic-5xGAL4-TK and the PPARgamma expression plasmid pcDNA3-GAL4-humanPPARgammaLBD, also used for the cellular PPARgamma assay are the reference plasmid pRL-CMV (from Promega) and the plasmid pBluescript SK(+) from Stratagene. All four plasmids were prepared using a plasmid preparation kit from Qiagen, which ensured a plasmid quality with a minimal endotoxin content, before transfection into HEK cells.
The activity of PPARgamma agonists is determined in a 4-day assay which is described below. Before the transfection, HEK cells were cultivated in DMEM medium (#41965-039, Invitrogen) which was mixed with the following additions: 10% FCS (#16000-044, Invitrogen),1% penicillin-streptomycin solution (#15140-122, Invitrogen) and 2 mM L-glutamine (#25030-024, Invitrogen).
Solution A, a transfection mixture which contains all four plasmids previously described in addition to DMEM medium, was prepared. […]

Structure (SMILES)	EC50 [1] [nM]	EC50 [2] [nM]
Cc1oc(-c2ccc(-c3ccccc3)cc2)nc1COC[C@H]1CCC[C@@H](COC(C)(C)C(=O)O)C1 [Example 13, 2-[(1R,3S)-3-(2-Biphenyl-4-yl-5-methyloxazol-4-ylmethoxymethyl)cyclohexylmethoxy]-2-methylpropionic acid]	313	124
CC(C)Cc1ccc(-c2nc(COC[C@H]3CCC[C@@H](COC(C)(C)C(=O)O)C3)c(C(C)C)o2)cc1 [Example 17, 2-{(1R,3S)-3-[2-(4-Isobutylphenyl)-5-isopropyloxazol-4-ylmethoxymethyl]cyclohexylmethoxy}-2-methylpropionic acid]	42	109
CCc1oc(-c2cccc(C(F)(F)F)c2)nc1COC[C@@H]1CCC[C@H](COC(C)(C)C(=O)O)C1 [Example 2, 2-{(1S,3R)-3-[5-Ethyl-2-(3-trifluoromethylphenyl)-oxazol-4-ylmethoxymethyl]cyclohexylmethoxy}-2-methylpropionic acid]	32	232
Cc1ccc(-c2nc(COC[C@@H]3CCC[C@H](COC(C)(C)C(=O)O)C3)c(C(C)C)o2)cc1C [Example 8, 2-{(1S,3R)-3-[2-(3,4-Dimethylphenyl)-5-isopropyloxazol-4-ylmethoxymethyl]cyclohexylmethoxy}-2-methylpropionic acid]	37.5	1500
Cc1oc(-c2ccc(Oc3ccccc3)cc2)nc1COC[C@H]1CCC[C@@H](COC(C)(C)C(=O)O)C1 [Example 20, 2-Methyl-2-{(1R,3S)-3-[5-methyl-2-(4-phenoxyphenyl)oxazol-4-ylmethoxymethyl]cyclohexylmethoxy}propionic acid]	149	71.4
Cc1oc(-c2ccccc2)nc1COCC1CCCC(COC(C)(C)C(=O)O)C1 (stereo not shown) [*]	75	2590

Now those with a lower EC50 [1], led by results:

EC50 [1] [nM]	EC50 [2] [nM]	Structure (SMILES)
20.5	38.3	CC(C)c1oc(-c2ccc(C(C)(C)C)cc2)nc1COC[C@H]1CCC[C@@H](COC(C)(C)C(=O)O)C1 [Example 18, 2-{(1R,3S)-3-[2-(4-tert-butylphenyl)-5-isopropyloxazol-4-ylmethoxymethyl]cyclohexylmethoxy}-2-methylpropionic acid]
12.7	199	CC(C)c1oc(-c2cccc(C(F)(F)F)c2)nc1COC[C@H]1CCC[C@@H](COC(C)(C)C(=O)O)C1 [Example 16, 2-{(1R,3S)-3-[5-Isopropyl-2-(3-trifluoromethylphenyl)oxazol-4-ylmethoxymethyl]cyclohexylmethoxyl}-2-methylpropionic acid]
3.6	1560	CCc1oc(-c2ccc(C(F)(F)F)cc2)nc1COC[C@@H]1CCC[C@H](COC(C)(C)C(=O)O)C1 [Example 1, 2-{(1S,3R)-3-[5-Ethyl-2-(4-trifluoromethylphenyl)oxazol-4-ylmethoxymethyl]cyclohexylmethoxy}-2-methylpropionic acid]
1.8	192	CCc1oc(-c2ccc3ccccc3c2)nc1COC[C@H]1CCC[C@@H](COC(C)(C)C(=O)O)C1 [Example 19, 2-[(1R,3S)-3-(5-Ethyl-2-naphthalen-2-yl-oxazol-4-ylmethoxymethyl)cyclohexylmethoxy]-2-methylpropionic acid]
1.3	> 10000	Cc1oc(-c2ccc(C(C)C)cc2)nc1COCC1CCCC(COC(C)(C)C(=O)O)C1 (stereo not shown) [**]
